Results taken from patent publication US9765154B2, “Phosphohistidine analogs” (THE ROCKEFELLER UNIVERSITY, priority 2010, dated 2017).

Assay: ionization of the phosphonate group (pK values)
Type: physicochemical
Excerpt: [drawing 33] it is isosteric with phosphorylated histidine. Further, the electrostatics of the phosphonoltriazolylalanine mimic those of phosphorylated Histidine. In particular, the phosphonate group of N-methyl-triazolylphosphonic acid is fully ionized at physiological pH (pK1=2.3 and pKA2=5.3), analogous to pHis.

For N-methyl-triazolylphosphonic acid, the “pK1 of the phosphonate group” value was 2.3 and the “pKA2 of the phosphonate group” value was 5.3.
